# From patent US7572913B2, “4-substituted piperidine derivatives” (Bioaxone Therapeutique Inc., priority 2004, dated 2009)
# “And” between values parts separate entries of the source, which are not always exact repeats. Identical values can stand only once. Like-named read-outs stand apart in the source and are kept apart here.
# Assays:
# ROCK-II(h) = ROCK-II(h) (Homo sapiens, UniProt O75116); settings: for % Control (single replicate) / Activity (% Control): ATP 100 micromolar; for % Control (single replicate): individual replicates; for Activity (% Control): mean of duplicate
# ROCK-II(h), sequence (O75116 whole entry): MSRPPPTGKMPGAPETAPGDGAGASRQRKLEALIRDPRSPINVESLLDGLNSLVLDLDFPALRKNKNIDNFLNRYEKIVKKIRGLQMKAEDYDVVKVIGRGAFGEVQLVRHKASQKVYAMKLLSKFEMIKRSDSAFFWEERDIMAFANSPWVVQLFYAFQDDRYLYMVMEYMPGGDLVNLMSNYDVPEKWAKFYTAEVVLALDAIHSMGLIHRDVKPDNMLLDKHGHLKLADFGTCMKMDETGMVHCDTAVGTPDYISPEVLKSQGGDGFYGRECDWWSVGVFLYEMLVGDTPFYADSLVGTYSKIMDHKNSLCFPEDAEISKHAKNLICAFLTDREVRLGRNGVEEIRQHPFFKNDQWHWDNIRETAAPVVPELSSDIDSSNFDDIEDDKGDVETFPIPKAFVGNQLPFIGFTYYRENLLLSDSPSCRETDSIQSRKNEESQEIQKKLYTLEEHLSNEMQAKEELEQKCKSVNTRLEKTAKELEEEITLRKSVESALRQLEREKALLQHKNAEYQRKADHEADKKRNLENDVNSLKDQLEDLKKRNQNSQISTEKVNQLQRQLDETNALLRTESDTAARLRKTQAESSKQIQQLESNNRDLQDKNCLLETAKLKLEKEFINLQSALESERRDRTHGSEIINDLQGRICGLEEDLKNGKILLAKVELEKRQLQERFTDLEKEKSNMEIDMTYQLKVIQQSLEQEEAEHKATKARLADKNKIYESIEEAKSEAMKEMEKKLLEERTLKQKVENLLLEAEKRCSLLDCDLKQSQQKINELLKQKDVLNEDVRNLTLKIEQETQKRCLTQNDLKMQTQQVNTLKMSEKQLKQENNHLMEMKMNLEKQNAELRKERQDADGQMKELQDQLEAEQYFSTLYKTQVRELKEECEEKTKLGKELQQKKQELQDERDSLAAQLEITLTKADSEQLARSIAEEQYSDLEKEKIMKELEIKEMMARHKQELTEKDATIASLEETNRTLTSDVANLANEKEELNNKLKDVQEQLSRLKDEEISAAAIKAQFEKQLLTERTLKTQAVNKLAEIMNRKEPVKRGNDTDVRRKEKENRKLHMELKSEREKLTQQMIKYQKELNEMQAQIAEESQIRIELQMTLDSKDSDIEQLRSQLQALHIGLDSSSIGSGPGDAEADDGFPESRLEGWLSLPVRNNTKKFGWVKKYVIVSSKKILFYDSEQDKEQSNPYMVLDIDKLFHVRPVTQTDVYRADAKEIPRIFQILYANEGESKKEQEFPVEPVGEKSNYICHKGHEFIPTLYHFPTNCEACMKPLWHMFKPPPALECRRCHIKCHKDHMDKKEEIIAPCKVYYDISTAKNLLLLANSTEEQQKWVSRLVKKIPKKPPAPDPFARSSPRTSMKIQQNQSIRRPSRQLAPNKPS
# Procedure: ROCK II (purchased from Upstate, Lake Placid, N.Y.) activity is assayed in 20 mM MOPS, pH 7.2, 25 mM β-glycerophosphate, 5 mM EGTA, 1 mM sodium orthovanadate, 1 mM dithiothreitol with dephosphorylated myelin basic protein (MBP, 0.2 mg/ml) as substrate with or without addition of a reference Rho kinase inhibitor. Activity assay reactions are performed for 30 min at 30° C. in 50 μl volumes using radiolabeled [32P] ATP (from Perkin-Elmer). The concentrations of ATP and magnesium chloride are 100 μM and 75 mM respectively. Assay reactions are initiated by adding Mg2+/ATP to each reaction mixture and are terminated by spotting 40 μl of each reaction mixture onto phosphocellulose paper (P81 paper, Whatman), followed by washes in 0.75% phosphoric acid to remove ATP followed by drying. The spotted paper is placed in scintillation cocktail and counted to measure 32P incorporation. Radioactivity is measured using a scintillation counter. Percent activity for a particular concentration of inhibitor is calculated as 100*(a−b)/(c−b), where a=cpm (enzyme+inhibitor), b=cpm (autophosphorylation of substrate and kinase) and c=cpm (enzyme−inhibitor). A dose-response chart is prepared for each inhibitor compound evaluated, then an IC50 (inhibitor concentration at 50% inhibition) determination is made as a measure of the potency of the compound as an inhibitor of Rho kinase. A plot of the log of concentration of test inhibitor compound (x axis) and the percent inhibition of kinase activity (y axis) is prepared. […] Experiments are done in duplicate or triplicate. ROCK II and dephosphorylated myelin basic protein (MBP) can be purchased from Upstate (Lake Placid, N.Y.). ATP is from Boehringer Mannheim and [γ-32P] ATP is from Perkin-Elmer. ROCK-II(h) is human ROCK-II.
# Kinase inhibitors frequently compete with ATP binding and are ATP-competitive. Drug concentration required for 50% inhibition (IC50) depends on the concentration of ATP used in the assays.
# An IC50 value for a compound of this invention can be determined from a plot of concentration of compound of this invention versus kinase activity of ROCK-II(h). The IC50 value for a compound of this invention can be expressed in units of micromolar, nanomolar, picomolar, and the like.
# In the table, the concentration of the rho kinase inhibitor is micromolar, CPM is counts per minute, and SD is standard deviation. The rho kinase inhibitor activity was tested in duplicate. In each case, the kinase activity is expressed as a percentage of that in control incubations. IC50 values were derived by PRISM at Upstate. ATP concentration was 100 micromolar.
# HUVEC cells = test: Endothelial cell migration, Boyden chamber with VEGF; assay type: cell-based, human; settings: 50 μM; 20 h; 10 ng/mL VEGF; fibronectin-coated transwells
# Procedure: A common assay uses Boyden or Transwell chambers, a compartmentalized cell cultures system. Cells are plated in the upper compartment of the Transwell chamber, and the ability of a compound under evaluation to block cell migration through, for example the pores of a Fluoroblok membrane, to the bottom compartment is measured. […] Typically, a chemoattractant is added to the bottom well or compartment. In the case of endothelial cells, a useful chemoattractant is vascular endothelial growth factor (VEGF). […] Experiments can be performed in 24-well plates (individual insert or multiwell insert) or in 96-multiwell insert plates with appropriate correction for volume and cell density. […] Following incubation with the cell dye, fluorescence from invaded cells is read in a fluorescence plate reader with bottom reading capabilities at excitation/emission wavelengths of 485/530 nm without further manipulation. Only those labeled cells that have migrated through the pores of the Fluoroblok membrane will be detected.
# The data may be expressed as either fluorescent units (FU) or as “fold migration”, i.e., the FU value of the cells migrating through the fibronectin coated insert membrane in response to a chemoattractant with inhibitor relative to the FU value of a control, i.e., without inhibitor. […]
# MSK1 = MSK1 (Homo sapiens, UniProt O75582); settings: FIG. 5; compound at 10 μM; ATP 100 μM; duplicate
# MSK1, sequence (O75582 whole entry, species assumed): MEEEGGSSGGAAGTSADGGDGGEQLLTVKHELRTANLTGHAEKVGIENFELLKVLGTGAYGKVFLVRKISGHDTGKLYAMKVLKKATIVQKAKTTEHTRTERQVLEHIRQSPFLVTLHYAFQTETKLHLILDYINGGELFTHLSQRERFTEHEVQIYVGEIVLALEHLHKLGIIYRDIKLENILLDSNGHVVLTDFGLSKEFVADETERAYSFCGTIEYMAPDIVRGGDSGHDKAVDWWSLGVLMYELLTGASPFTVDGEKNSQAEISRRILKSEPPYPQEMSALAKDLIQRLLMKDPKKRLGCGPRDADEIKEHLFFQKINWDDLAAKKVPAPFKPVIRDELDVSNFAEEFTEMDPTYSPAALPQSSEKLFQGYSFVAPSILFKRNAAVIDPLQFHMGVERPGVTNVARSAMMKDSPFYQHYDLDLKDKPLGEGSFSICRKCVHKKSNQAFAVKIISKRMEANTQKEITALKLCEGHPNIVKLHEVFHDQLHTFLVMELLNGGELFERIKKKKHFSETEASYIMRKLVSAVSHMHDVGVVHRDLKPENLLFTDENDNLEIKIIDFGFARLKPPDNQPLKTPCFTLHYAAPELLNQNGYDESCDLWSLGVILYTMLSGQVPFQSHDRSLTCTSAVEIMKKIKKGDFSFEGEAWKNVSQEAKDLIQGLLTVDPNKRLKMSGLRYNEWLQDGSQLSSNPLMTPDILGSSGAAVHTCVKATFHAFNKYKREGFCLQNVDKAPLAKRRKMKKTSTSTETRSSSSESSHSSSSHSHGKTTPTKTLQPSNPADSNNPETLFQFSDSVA
# Procedure: (§1) The values were expressed in a percentage of inhibition of each kinase. Experiments were done in duplicate. ATP was present at 100 μM in the assay.
# PRK2 = PRK2 (Homo sapiens, UniProt Q16513); settings: FIG. 5; compound at 10 μM; ATP 100 μM; duplicate
# PRK2, sequence (Q16513 whole entry): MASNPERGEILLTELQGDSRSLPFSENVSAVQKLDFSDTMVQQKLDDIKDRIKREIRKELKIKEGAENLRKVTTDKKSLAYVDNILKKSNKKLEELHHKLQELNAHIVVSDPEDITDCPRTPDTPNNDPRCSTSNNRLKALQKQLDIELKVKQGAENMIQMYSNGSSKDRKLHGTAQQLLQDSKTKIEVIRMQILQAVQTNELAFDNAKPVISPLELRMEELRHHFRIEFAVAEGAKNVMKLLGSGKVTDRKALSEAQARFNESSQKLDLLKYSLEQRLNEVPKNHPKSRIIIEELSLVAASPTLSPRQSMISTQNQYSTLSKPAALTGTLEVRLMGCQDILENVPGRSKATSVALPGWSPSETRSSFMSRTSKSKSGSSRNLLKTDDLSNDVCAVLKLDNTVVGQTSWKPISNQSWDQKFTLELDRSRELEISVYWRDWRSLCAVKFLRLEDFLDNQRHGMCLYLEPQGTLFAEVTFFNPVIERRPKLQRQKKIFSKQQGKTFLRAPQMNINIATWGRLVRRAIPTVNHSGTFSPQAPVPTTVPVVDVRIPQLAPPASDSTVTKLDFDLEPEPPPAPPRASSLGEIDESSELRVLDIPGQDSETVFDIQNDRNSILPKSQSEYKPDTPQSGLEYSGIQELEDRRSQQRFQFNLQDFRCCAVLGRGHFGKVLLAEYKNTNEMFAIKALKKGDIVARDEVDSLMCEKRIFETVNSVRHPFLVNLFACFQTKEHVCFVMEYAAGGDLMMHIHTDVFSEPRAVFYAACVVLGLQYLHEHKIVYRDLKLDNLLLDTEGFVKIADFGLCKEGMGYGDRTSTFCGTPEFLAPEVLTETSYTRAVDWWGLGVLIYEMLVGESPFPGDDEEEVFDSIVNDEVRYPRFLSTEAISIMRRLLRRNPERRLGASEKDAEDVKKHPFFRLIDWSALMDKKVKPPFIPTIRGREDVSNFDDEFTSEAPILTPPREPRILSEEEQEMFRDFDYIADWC
# Procedure: Samples can also be tested at 10 μM against CDK5/p35(h), JNK1α1(h), MAPK1(h), PKA(b), PKCα(h), PRK2(h), ROCK-II(r), […], PKBα(h), and Fyn(h) with ATP at 100 μM.
# as §1
# HEC-1B cells = settings: 72 hours incubation; different concentrations; Alamar Blue
# Procedure: For this assay, cells are thawed and passaged at least one time before the experiment. Cells are grown in a culture dish in media supplemented with serum and supplements appropriate for the test cell line. When they reach logarithmic growth, the cells are trypsinized to detach them from the culture dish and are counted. The cell pellet is resuspended and adjusted to 2-5×10^4 cells/ml. A 96-well microplate is used for the experiment and cells are plated at a density of 1000 to 5000 cells/well in 100 μL of growth media. The seeding density is noted to ensure that the cells in the control wells are not overgrown after the total incubation time. […] At the end of the incubation period, the fluorescence intensity is read with a 96-well microplate reader (excitation 530-560 nm; emission 590 nm), with bottom reading. The fluorescence generated in the AlamarBlue™ assay can be stopped and stabilized by the addition of 3% SDS. […]
# For each concentration of test article, a % growth is calculated using the following equation, wherein • T0=fluorescence units at the time of test article addition (time 0) • C=fluorescence units for control (no test article) • Ti=fluorescence unit for test article (different dilution)
# Cadmium sulfate hydrate (CAD) was used as a positive control. Following treatment, the rate of proliferation was measured using the Alamar Blue assay.
# ROCKI = ROCKI (Homo sapiens, UniProt Q13464); settings: ATP 100 μM, duplicate
# ROCKI, sequence (Q13464 whole entry): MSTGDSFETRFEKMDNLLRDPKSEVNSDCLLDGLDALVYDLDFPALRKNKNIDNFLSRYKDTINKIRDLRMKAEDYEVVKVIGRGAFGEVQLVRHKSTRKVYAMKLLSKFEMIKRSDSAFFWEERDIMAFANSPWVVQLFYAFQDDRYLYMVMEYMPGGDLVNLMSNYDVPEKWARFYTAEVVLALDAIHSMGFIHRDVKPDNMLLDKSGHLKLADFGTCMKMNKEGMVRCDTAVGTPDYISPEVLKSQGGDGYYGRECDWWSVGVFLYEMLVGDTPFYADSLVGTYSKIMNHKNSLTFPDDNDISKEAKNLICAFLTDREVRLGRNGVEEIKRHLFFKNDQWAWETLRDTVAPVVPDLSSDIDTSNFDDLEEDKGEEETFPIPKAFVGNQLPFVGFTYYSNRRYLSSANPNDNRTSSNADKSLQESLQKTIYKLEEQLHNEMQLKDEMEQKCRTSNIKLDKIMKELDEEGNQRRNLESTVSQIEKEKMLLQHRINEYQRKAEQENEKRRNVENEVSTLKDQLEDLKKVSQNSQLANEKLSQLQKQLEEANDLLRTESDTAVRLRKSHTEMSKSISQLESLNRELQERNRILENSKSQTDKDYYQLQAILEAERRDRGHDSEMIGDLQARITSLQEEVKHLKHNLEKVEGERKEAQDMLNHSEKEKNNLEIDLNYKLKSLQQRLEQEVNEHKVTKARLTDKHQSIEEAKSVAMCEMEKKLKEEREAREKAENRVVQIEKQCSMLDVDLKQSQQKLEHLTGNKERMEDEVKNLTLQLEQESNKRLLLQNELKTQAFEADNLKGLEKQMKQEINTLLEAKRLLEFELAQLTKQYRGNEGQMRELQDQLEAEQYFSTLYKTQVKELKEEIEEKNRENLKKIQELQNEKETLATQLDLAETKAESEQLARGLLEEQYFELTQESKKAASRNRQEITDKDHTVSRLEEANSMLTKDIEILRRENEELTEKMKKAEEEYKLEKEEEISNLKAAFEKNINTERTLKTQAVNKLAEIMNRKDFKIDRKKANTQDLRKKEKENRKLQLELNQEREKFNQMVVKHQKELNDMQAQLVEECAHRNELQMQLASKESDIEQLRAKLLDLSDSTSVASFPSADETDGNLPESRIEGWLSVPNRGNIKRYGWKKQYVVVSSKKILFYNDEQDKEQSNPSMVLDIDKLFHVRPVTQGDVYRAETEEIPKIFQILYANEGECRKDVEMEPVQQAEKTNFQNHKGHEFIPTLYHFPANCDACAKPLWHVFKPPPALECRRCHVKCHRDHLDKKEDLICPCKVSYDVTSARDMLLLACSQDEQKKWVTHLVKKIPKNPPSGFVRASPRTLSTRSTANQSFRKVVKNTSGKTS
# Procedure: Experiments were done in duplicate. ATP was present at 100 μM in the assay.
# as §1
# [1] = equilibrium dialysis 24 h, 37° C.
# Text for human plasma proteins: Plasma or serum protein binding assays using the equilibrium dialysis method are used to determine drug availability. Equilibrium dialysis studies using a 96-well microplate format or using conventional 2-chambered Teflon dialysis cells can be used to determine plasma or serum binding, and LC/MS/MS analysis is used for test compound quantification. The Teflon dialysis cell system is commonly used to determine the time to reach equilibrium, the fraction of a compound bound and unbound to plasma proteins and the effect of concentration on the extent of binding. Test compound quantification is performed by HPLC or LC/MS/MS analysis.
# To perform equilibrium dialysis the following procedures can be used. To 0.990 mL of thawed plasma (37° C.), a 10 μL aliquot of the stock solutions is added for test compound concentrations of 35 μM. An appropriate volume of buffer (Dulbecco's phosphate buffered saline, pH 7.4) is spiked with each test compound at a concentration of 35 μM. Duplicate aliquots (130 μL) of each spiked plasma and buffer solution are collected prior to dialysis into labeled 1.5 mL polypropylene tubes and stored frozen at −40° C. […] Equilibrium dialysis is performed in a 96-well Teflon dialysis unit. Each well of the unit consists of two chambers separated by a vertically aligned dialysis membrane (regenerated cellulose) with a molecular weight cut-off of 12-14 KDa. The equilibrium dialysis membranes are first pre-soaked in deionized water for 30 min, then soaked in 20% ethanol for 20 min, followed by rinsing twice with deionized water. The equilibrium dialysis apparatus is assembled according to the manufacturer's directions. One chamber of each well is filled with 150 μL of blank buffer (to prevent membrane dehydration). Aliquots (150 μL) of spiked plasma or spiked buffer are added to the opposing chamber in each well. The top of the plate is sealed with an adhesive sealing film to prevent evaporation and to maintain constant pH during incubation. All dialysis experiments with the test compounds and standards are assessed using duplicate samples. The dialysis apparatus is incubated at 37° C. in an orbital shaker/incubator (Lab-Line Enviro) samples are collected following 24 hours of incubation. Samples containing the test compounds are stored frozen at −70° C. until analysis. Samples (100 μL) containing the radiolabels are added and mixed by vortex. The disintegrations per minute (dpm) in each vial are measured with a liquid scintillation counter. The fraction of each test compound and standard unbound (fu) to human serum proteins is calculated according to the following equation:
# [formula] wherein Cbuffer and Cplasma represent the concentration of the compound measured in the buffer and plasma chambers, respectively, following dialysis. The fraction bound (fb) to the plasma proteins is determined as: 1−fu.
smiles,measurement,setting,value
"CC(N)C1CCN(S(=O)(=O)c2cccc3cnccc23)CC1.Cl.Cl (racemic) [E-23a, (R,S)-N-(5″-isoquinolinesulfonyl)-4-[ethan-1′-amino]piperidine dihydrochloride]",availability in plasma (in words),human plasma proteins; equilibrium dialysis,relatively available in the unbound form
same,Bound (%),human plasma proteins; [1],7.26%
same,Unbound (%),human plasma proteins; [1],92.7%
same,% Control (single replicate),"ROCK-II(h); BA-1049 0.01 μM, dihydrochloride",96 % Control and 104 % Control
same,Activity (% Control),ROCK-II(h); BA-1049 0.01 μM,100 % Control
same,% Control (single replicate),"ROCK-II(h); BA-1049 0.03 μM, dihydrochloride",109 % Control and 86 % Control
same,Activity (% Control),ROCK-II(h); BA-1049 0.03 μM,98 % Control
same,% Control (single replicate),"ROCK-II(h); BA-1049 0.1 μM, dihydrochloride",86 % Control and 102 % Control
same,Activity (% Control),ROCK-II(h); BA-1049 0.1 μM,94 % Control
same,% Control (single replicate),"ROCK-II(h); BA-1049 0.3 μM, dihydrochloride",62 % Control and 74 % Control
same,Activity (% Control),ROCK-II(h); BA-1049 0.3 μM,68 % Control
same,% Control (single replicate),"ROCK-II(h); BA-1049 1 μM, dihydrochloride",45 % Control and 50 % Control
same,Activity (% Control),ROCK-II(h); BA-1049 1 μM,48 % Control
same,% Control (single replicate),"ROCK-II(h); BA-1049 3 μM, dihydrochloride",25 % Control and 27 % Control
same,Activity (% Control),ROCK-II(h); BA-1049 3 μM,26 % Control
same,% Control (single replicate),"ROCK-II(h); BA-1049 10 μM, dihydrochloride",8 % Control and 16 % Control
same,Activity (% Control),ROCK-II(h); BA-1049 10 μM,12 % Control
same,% Control (single replicate),ROCK-II(h); BA-1049 30 μM,4 % Control
same,Activity (% Control),ROCK-II(h); BA-1049 30 μM,4 % Control
same,% Control (single replicate),"ROCK-II(h); BA-1049 100 μM, dihydrochloride",0 % Control and 5 % Control
same,Activity (% Control),ROCK-II(h); BA-1049 100 μM,3 % Control
same,IC50,"ROCK-II(h); read-out: IC50, inhibition of ROCK-II(h), ATP 100 μM, duplicate, derived by PRISM",0.791 µM
same,"migration, % of the amount observed with Ctl+VEGF",HUVEC cells,approximately 40%
same,percentage of inhibition of MSK1,MSK1,43%
same,percentage of inhibition of PRK2,PRK2,52%
same,proliferation of HEC-1B cells (in words),HEC-1B cells,reduced proliferation
same,percentage of inhibition of ROCK I,"ROCKI; FIG. 5, compound at 10 μM",31%
same,IC50,"ROCKI; read-out: IC50, inhibition of ROCKI",20.6 µM
